Measurements as given in US20150291598A1 (NOVARTIS AG, priority 2012, published 2015).

Tested on: P. falciparum (NF54 or 3D7 strain)
Test: Assay for P. falciparum proliferation in infected human blood cells (SYBR Green)
Format: cell-based, Plasmodium falciparum
Conditions: Plasmodium falciparum, Erythrocyte, 72 h, NF54 or 3D7 infected human erythrocytes, 72 hours; read-out: EC50 (nM), inhibitory efficacy in delaying P. falciparum proliferation in infected human blood cells
How it was run: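 NF54 or 3D7 parasites in O+ human erythrocytes at 2.5% hematocrit and 0.3% parasitemia final, exposed to compounds 72 h at 37 °C under 93% N2/4% CO2/3% O2.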

| EC50 | Compound |
| --- | --- |
| 2910 nM | CN(C(=O)c1cn2c(-c3cnc4c(cnn4C)c3)cnc2cn1)c1ccc(C#N)cc1 [Compound 391, N-(4-cyanophenyl)-N-methyl-3-{1-methyl-1H-pyrazolo[3,4-b]pyridin-5-yl}imidazo[1,2-a]pyrazine-6-carboxamide] |
| 3250 nM | FC(F)(F)c1ccc(-c2cnc3cnc(CN4CCOCC4)cn23)cc1 [Compound 392, 4-({3-[4-(trifluoromethyl)phenyl]imidazo[1,2-a]pyrazin-6-yl}methyl)morpholine] |
| 3940 nM | CN(C(=O)c1cn2c(-c3ccc(C(N)=O)nc3)cnc2cn1)c1ccc(C#N)cc1 [Compound 393, 5-{6-[(4-cyanophenyl)(methyl)carbamoyl]imidazo[1,2-a]pyrazin-3-yl}pyridine-2-carboxamide] |
| 4910 nM | CN(C)c1ccc(N(C)C(=O)c2cn3c(-c4ccc(C(F)(F)F)cc4)cnc3cn2)cn1 [Compound 394, N-[6-(dimethylamino)pyridin-3-yl]-N-methyl-3-[4-(trifluoromethyl)phenyl]imidazo[1,2-a]pyrazine-6-carboxamide] |
| 5020 nM | COc1ccc(N(C)C(=O)c2cn3c(-c4ccc(C(F)(F)F)cc4)cnc3cn2)nn1 [Compound 395, N-(6-methoxypyridazin-3-yl)-N-methyl-3-[4-(trifluoromethyl)phenyl]imidazo[1,2-a]pyrazine-6-carboxamide] |
| 5720 nM | CN(C(=O)c1cn2c(-c3ccc4[nH]nc(N)c4c3)cnc2cn1)c1ccc(C#N)cc1 [Compound 396, 3-(3-amino-1H-indazol-5-yl)-N-(4-cyanophenyl)-N-methylimidazo[1,2-a]pyrazine-6-carboxamide] |
| 6550 nM | NC(=O)C1CCCN(C(=O)c2cn3c(-c4ccc(C(F)(F)F)cc4)cnc3cn2)C1 (stereo not drawn) [Compound 397, 1-({3-[4-(trifluoromethyl)phenyl]imidazo[1,2-a]pyrazin-6-yl}carbonyl)piperidine-3-carboxamide] |
| 6840 nM | CNc1ccc(-c2cnc3cnc(C(=O)N(C)c4ccc(Cl)nc4)cn23)cc1 [Compound 398, N-(6-chloropyridin-3-yl)-N-methyl-3-[4-(methylamino)phenyl]imidazo[1,2-a]pyrazine-6-carboxamide] |
| 6980 nM | COc1ncc(N(C)C(=O)c2cn3c(-c4ccc(C(F)(F)F)cc4)cnc3cn2)cn1 [Compound 399, N-(2-methoxypyrimidin-5-yl)-N-methyl-3-[4-(trifluoromethyl)phenyl]imidazo[1,2-a]pyrazine-6-carboxamide] |
| 7850 nM | CN(C(=O)c1cn2c(-c3ccc(NCCN4CCOCC4)nc3)cnc2cn1)c1ccc(C#N)cc1 [Compound 400, -(4-cyanophenyl)-N-methyl-3-(6-{[2-(morpholin-4-yl)ethyl]amino}pyridin-3-yl)imidazo[1,2-a]pyrazine-6-carboxamide] |
| > 10000 nM | CN(C(=O)c1cn2c(-c3ccc(C#N)nc3)cnc2cn1)c1ccc(C#N)cc1 [Compound 401, N-(4-cyanophenyl)-3-(6-cyanopyridin-3-yl)-N-methylimidazo[1,2-a]pyrazine-6-carboxamide] |
| 3610 nM | CN(C(=O)c1cn2c(-c3ccc(OC(C)(C)CN)cc3)cnc2cn1)c1ccc(C#N)cc1 [Compound 402, 3-{4-[(1-amino-2-methylpropan-2-yl)oxy]phenyl}-N-(4-cyanophenyl)-N-methylimidazo[1,2-a]pyrazine-6-carboxamide] |
| > 5980 nM | CN(C(=O)c1cn2c(C(=O)Nc3ccc(C(F)(F)F)cc3)cnc2cn1)c1ccc(Cl)nc1 [Compound 403, 6-N-(6-chloropyridin-3-yl)-6-N-methyl-3-N-[4-(trifluoromethyl)phenyl]imidazo[1,2-a]pyrazine-3,6-dicarboxamide] |
| > 7570 nM | NC(=O)c1nc[nH]c1NC(=O)c1cn2c(-c3ccc(C(F)(F)F)cc3)cnc2cn1 [Compound 404, 5-C-3-[4-(trifluoromethyl)phenyl]imidazo[1,2-a]pyrazine-6-1H-imidazole-4,5-dicarboxamide] |
| > 8820 nM | CC(c1ccc(Cl)cc1)N(C)C(=O)c1cn2c(-c3ccc(C(F)(F)F)cc3)cnc2cn1 (stereo not drawn) [Compound 405, N-[1-(4-chlorophenyl)ethyl]-N-methyl-3-[4-(trifluoromethyl)phenyl]imidazo[1,2-a]pyrazine-6-carboxamide] |
| > 8860 nM | O=C(Nc1ccc(S(=O)(=O)Nc2nccs2)cc1)c1cn2c(-c3ccc(C(F)(F)F)cc3)cnc2cn1 [Compound 406, N-{4-[(1,3-thiazol-2-yl)sulfamoyl]phenyl}-3-[4-(trifluoromethyl)phenyl]imidazo[1,2-a]pyrazine-6-carboxamide] |
| > 8970 nM | CNc1ccc(-c2cnc3cnc(C(=O)N(C)c4ccc(Cl)nc4)cn23)cn1 [Compound 407, N-(6-chloropyridin-3-yl)-N-methyl-3-[6-(methylamino)pyridin-3-yl]imidazo[1,2-a]pyrazine-6-carboxamide] |
| > 9300 nM | CN(C(=O)c1cn2c(-c3ccc(NC(=O)C(C)(C)N)cc3)cnc2cn1)c1ccc(C#N)cc1 [Compound 408, 3-[4-(2-amino-2-methylpropanamido)phenyl]-N-(4-cyanophenyl)-N-methylimidazo[1,2-a]pyrazine-6-carboxamide] |

| EC50 | Compound |
| --- | --- |
| > 9340 nM | Cc1ccc(N(C)C(=O)c2cn3c(-c4ccc(OCCN)cc4)cnc3cn2)nc1 [Compound 409, 3-[4-(2-aminoethoxyl)phenyl]-N-methyl-N-(5-methylpyridin-2-yl)imidazo[1,2-a]pyrazine-6-carboxamide] |
| > 10000 nM | CN(C(=O)c1cn2c(-c3ccc(-c4nnco4)cc3)cnc2cn1)c1ccc(Cl)nc1 [Compound 410, N-(6-chloropyridin-3-yl)-N-methyl-3-[4-(1,3,4-oxadiazol-2-yl)phenyl]imidazo[1,2-a]pyrazine-6-carboxamide] |
| > 7570 nM | Cc1nc(C(=O)N2CCCc3cc(F)ccc32)cn2c(-c3ccc(C(F)(F)F)cc3)cnc12 [Compound 411, 6-fluoro-1-({8-methyl-3-[4-(trifluoromethyl)phenyl]imidazo[1,2-a]pyrazin-6-yl}carbonyl)-1,2,3,4-tetrahydroquinoline] |
| 7880 nM | CN(C(=O)c1cn2c(-c3ccc(C(F)(F)F)cc3)cnc2cn1)c1ccc(C2CCCC2)cn1 [Compound 412, N-(5-cyclopentylpyridin-2-yl)-N-methyl-3-[4-(trifluoromethyl)phenyl]imidazo[1,2-a]pyrazine-6-carboxamide] |
| 7400 nM | CN(C(=O)c1cn2c(-c3ccc(C(F)(F)F)nc3)cnc2cn1)c1ccc(Cl)nc1 [Compound 413, N-(6-chloropyridin-3-yl)-N-methyl-3-[6-(trifluoromethyl)pyridin-3-yl]imidazo[1,2-a]pyrazine-6-carboxamide] |
| > 7910 nM | CC(C)(NC(=O)c1cn2c(-c3ccc(C(F)(F)F)cc3)cnc2cn1)c1ccc(F)cc1 [Compound 414, N-[2-(4-fluorophenyl)propan-2-yl]-3-[4-(trifluoromethyl)phenyl]imidazo[1,2-a]pyrazine-6-carboxamide] |
| > 10000 nM | COC(=O)Nc1ccc(-c2cnc3cnc(C(=O)N(C)c4ccc(C)cn4)cn23)cn1 [Compound 415, methyl N-(5-{6-[methyl(5-methylpyridin-2-yl)carbamoyl]imidazo[1,2-a]pyrazin-3-yl}pyridin-2-yl)carbamate] |
| > 10000 nM | CN(C(=O)c1cn2c(-c3ccc(C(F)(F)F)cc3)cnc2cn1)c1cccc2nncn12 [Compound 416, N-methyl-N-{[1,2,4]triazolo[4,3-a]pyridin-5-yl}-3-[4-(trifluoromethyl)phenyl]imidazo[1,2-a]pyrazine-6-carboxamide] |
| > 10000 nM | CN(C(=O)c1ccc(C(C)(C)C)cc1)c1cn2c(-c3ccc(C(F)(F)F)cc3)cnc2cn1 [Compound 417, 4-tert-butyl-N-methyl-N-{3-[4-(trifluoromethyl)phenyl]imidazo[1,2-a]pyrazin-6-yl}benzamide] |
| > 10000 nM | CN(C)c1cccc(-c2cnc3cnc(C(=O)N(C)c4ccc(Cl)nc4)cn23)c1 [Compound 418, N-(6-chloropyridin-3-yl)-3-[3-(dimethylamino)phenyl]-N-methylimidazo[1,2-a]pyrazine-6-carboxamide] |
| > 8270 nM | CN(C(=O)c1cn2c(-c3ccc(NS(C)(=O)=O)cc3)cnc2cn1)c1ccc(Cl)nc1 [Compound 419, N-(6-chloropyridin-3-yl)-3-(4-methanesulfonamidophenyl)-N-methylimidazo[1,2-a]pyrazine-6-carboxamide] |
| > 10000 nM | Cc1ncccc1N(C)C(=O)c1cn2c(-c3ccc(C(F)(F)F)cc3)cnc2cn1 [Compound 420, N-methyl-N-(2-methylpyridin-3-yl)-3-[4-(trifluoromethyl)phenyl]imidazo[1,2-a]pyrazine-6-carboxamide] |
| > 10000 nM | CN(C(=O)c1cn2c(-c3ccc(F)cc3)cnc2cn1)c1ccc(Cl)nc1 [Compound 422, N-(6-chloropyridin-3-yl)-3-(4-fluorophenyl)-N-methylimidazo[1,2-a]pyrazine-6-carboxamide] |
| > 9660 nM | CN(C(=O)c1cn2c(-c3ccc(C(F)(F)F)cc3)cnc2cn1)c1nc(-c2ccccc2)cs1 [Compound 423, N-methyl-N-(4-phenyl-1,3-thiazol-2-yl)-3-[4-(trifluoromethyl)phenyl]imidazo[1,2-a]pyrazine-6-carboxamide] |
| 291 nM | Cc1n[nH]c2ccc(-c3cnc4cnc(C(=O)N(C)c5ccc(C#N)cc5)cn34)cc12 [Compound 424] |
| 1020 nM | CC(=O)c1ccc(N(C)C(=O)c2cn3c(-c4ccc(C(F)(F)F)cc4)cnc3cn2)cc1 [Compound 425, N-(4-acetylphenyl)-N-methyl-3-[4-(trifluoromethyl)phenyl]imidazo[1,2-a]pyrazine-6-carboxamide] |
| 1950 nM | O=C1CCCCN1Cc1cn2c(-c3ccc(C(F)(F)F)cc3)cnc2cn1 [Compound 426, 1-({3-[4-(trifluoromethyl)phenyl]imidazo[1,2-a]pyrazin-6-yl}methyl)piperidin-2-one] |
| > 9800 nM | CN(C)C(=O)c1ccc(-c2cnc3cnc(C(=O)N(C)c4ccc(C#N)cc4)cn23)cc1 [Compound 427, N-(4-cyanophenyl)-3-[4-(dimethylcarbamoyl)phenyl]-N-methylimidazo[1,2-a]pyrazine-6-carboxamide] |
